From ChEMBL document CHEMBL1141251, “Anthelmintic macrolactams from Nonomuraea turkmeniaca MA7364” (2007)
Converted amounts (≈) assume the structure as drawn. The source made the active and inactive calls. The rule behind the calls is not given here.

Tests used:
[1] = test system: Haemonchus contortus; test: Anthelmintic activity against Haemonchus contortus assessed as reduction in L3 larval motility; assay type: functional
[2] = test system: Heligmosomoides polygyrus; test: Anthelmintic activity in Heligmosomoides polygyrus infected Swiss Webster mouse assessed as reduction in worm count at 50 mg/kg, sc on day 3 relative to control; assay type: functional; set-up: scale not given: the % may be the effect or the level left

SMILES: CCC1CCCNC(=O)[C@H](C)[C@@H](O[C@@H]2O[C@@H](C)[C@@H](O)[C@@H](NC)[C@H]2O)CCC(C)CCC1 (some centres undefined)
- EC90 [1]: 29 µg/mL (≈ 65.5 µM)
- Activity ([2]; route subcutaneous): 42%

SMILES: CCC1CCCCCC[C@H](O[C@@H]2O[C@@H](C)[C@@H](O)[C@@H](NC)[C@H]2O)[C@@H](C)C(=O)NCCC1 (some centres undefined)
- EC90 [1]: 15 µg/mL (≈ 35 µM)
- Activity [2]: inactive
